Data published in patent publication US8785459B2, “Quinazoline compounds as kinase inhibitors” (Development Center for Biotechnology, priority 2011, dated 2014).

Legend:
Format in all cases: biochemical
B-Raf = B-Raf (Homo sapiens (Human), UniProt P15056); assay: Raf kinase assay (B-Raf), [33P] incorporation into MEK1(K97R); details: for inhibition at 1 µM / B-Raf inhibition at 1.0 μM: 1.0 μM compound; for inhibition at 1 µM: read-out: B-Raf inhibition at 1.0 μM
Experimental: (§1) A. Raf Kinase Assays (B-Raf, B-raf (V600E), and C-Raf)
(§2) Inhibition of kinase activity by test compound disclosed herein was estimated by quantifying the amount of [^33P] incorporation of substrate in the presence of test compound. Standard assay conditions were 2 ng of recombinant C-Raf or 5 ng of recombinant B-Raf or 5 ng of recombinant B-Raf (V600E) kinase (Upstate Biotechnology) with 500 ng MEK1(K97R) in assay buffer {8 μM ATP, 0.5 μCi [^33P]ATP (specific activity 3000 Ci/mmol, PerkinElmer), 50 mM Tris/HCl (pH7.5), and 1 mM EGTA, 1 mM Na3VO4, 1% 2-mercaptoethanol, 0.1% Brij 35, and 0.2 mg/ml BSA} at a final volume of 25 μL. Reactions were incubated at 30° C. for 30 min and stopped by adding 3% phosphoric acid, harvested onto a 96-well GF/B UniFilter (PerkinElmer) using a unifilter harvester (PerkinElmer), and counted with a TopCount microplate scintillation counter (PerkinElmer). The IC50 values of inhibitors were determined after carrying out assays at 3-fold serially diluted concentrations of each compound in duplication. The results were analyzed using linear regression software (GraphPad Prism 4; GraphPad Software Inc.). Inhibition of B-Raf, B-raf (V600E), and C-Raf kinases by various compounds listed in Table 1 are summarized and shown in Table 3 below. IC50 value is defined as the concentration of the test compound which achieves a half-maximal inhibition of the kinase activity.

B-Raf (V600E) = B-Raf (V600E) (Homo sapiens (Human), UniProt P15056, V600E); assay: Raf kinase assay (B-Raf (V600E)), [33P] incorporation into MEK1(K97R)
Sequence of B-Raf (V600E) (P15056 whole entry V600E): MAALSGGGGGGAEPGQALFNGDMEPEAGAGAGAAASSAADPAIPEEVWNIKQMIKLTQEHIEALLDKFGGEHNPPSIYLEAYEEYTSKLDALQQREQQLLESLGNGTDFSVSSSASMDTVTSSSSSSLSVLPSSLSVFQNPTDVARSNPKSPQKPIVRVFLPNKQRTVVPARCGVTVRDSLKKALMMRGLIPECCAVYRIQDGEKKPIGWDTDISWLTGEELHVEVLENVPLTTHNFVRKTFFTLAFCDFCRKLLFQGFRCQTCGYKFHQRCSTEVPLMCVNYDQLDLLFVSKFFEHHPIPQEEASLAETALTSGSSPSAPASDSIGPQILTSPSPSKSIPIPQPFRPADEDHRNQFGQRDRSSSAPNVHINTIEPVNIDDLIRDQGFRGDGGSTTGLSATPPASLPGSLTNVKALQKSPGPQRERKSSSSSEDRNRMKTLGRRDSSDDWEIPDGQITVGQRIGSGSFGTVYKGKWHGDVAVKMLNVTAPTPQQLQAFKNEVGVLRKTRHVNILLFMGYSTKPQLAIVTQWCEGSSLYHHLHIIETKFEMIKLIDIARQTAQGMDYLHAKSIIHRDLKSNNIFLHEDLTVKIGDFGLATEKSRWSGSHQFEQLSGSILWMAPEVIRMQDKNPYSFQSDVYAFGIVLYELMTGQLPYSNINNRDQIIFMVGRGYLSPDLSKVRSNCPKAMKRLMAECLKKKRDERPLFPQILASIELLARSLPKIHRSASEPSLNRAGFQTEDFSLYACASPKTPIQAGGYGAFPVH
Experimental: as §1, §2

C-Raf = C-Raf (Homo sapiens (Human), UniProt P04049); assay: Raf kinase assay (C-Raf), [33P] incorporation into MEK1(K97R)
Sequence of C-Raf (P04049 whole entry): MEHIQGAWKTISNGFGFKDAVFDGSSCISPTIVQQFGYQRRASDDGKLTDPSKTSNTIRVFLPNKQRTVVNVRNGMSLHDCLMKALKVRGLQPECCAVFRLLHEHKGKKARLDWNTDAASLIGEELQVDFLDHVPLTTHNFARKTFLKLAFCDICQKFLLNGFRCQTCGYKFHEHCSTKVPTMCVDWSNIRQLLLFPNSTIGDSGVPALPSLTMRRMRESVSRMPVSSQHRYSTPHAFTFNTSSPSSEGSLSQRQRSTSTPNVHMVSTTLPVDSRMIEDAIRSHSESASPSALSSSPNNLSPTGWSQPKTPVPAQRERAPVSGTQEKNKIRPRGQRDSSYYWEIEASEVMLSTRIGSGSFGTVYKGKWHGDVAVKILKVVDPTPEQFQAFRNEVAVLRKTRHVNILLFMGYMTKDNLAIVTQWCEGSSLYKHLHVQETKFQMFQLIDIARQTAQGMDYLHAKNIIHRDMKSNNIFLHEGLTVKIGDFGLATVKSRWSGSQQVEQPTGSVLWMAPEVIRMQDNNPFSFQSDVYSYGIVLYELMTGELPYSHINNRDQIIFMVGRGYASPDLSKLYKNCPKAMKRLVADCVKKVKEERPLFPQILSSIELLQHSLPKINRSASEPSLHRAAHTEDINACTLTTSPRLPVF
Experimental: as §1, §2

Sequence of B-Raf (P15056 whole entry): as the sequence (P15056 whole entry V600E) above, with E600V counted along it

Row | IC50 (B-Raf) | inhibition at 1 µM (B-Raf) | IC50 (B-Raf (V600E)) | IC50 (C-Raf) | B-Raf inhibition at 1.0 μM (B-Raf) | Structure (SMILES)
1 | 73.8 nM | 93.4% | 90 nM | 861 nM |  | CS(=O)(=O)Nc1cccc(-c2ccc3ncnc(Nc4cccc(O)c4)c3c2)c1 [Compound 72, N-(3-(4-(3-hydroxyphenylamino)quinazolin-6-yl)phenyl)methanesulfonamide]
2 | 660 nM | 57.5% | 707 nM | 1400 nM |  | COc1cc(-c2ccc3ncnc(Nc4ccc5c(c4)OCO5)c3c2)ccc1O [Compound 38, 4-(4-(benzo[d][1,3]dioxol-5-ylamino)quinazolin-6-yl)-2-methoxyphenol]
3 | 231 nM | 80.3% | 263 nM | 688 nM |  | COc1cccc(-c2ccc3nccc(Nc4cccc5[nH]ncc45)c3c2)c1 [Compound 123, N-(1H-indazol-4-yl)-6-(3-methoxyphenyl)quinolin-4-amine]
4 | 1120 nM | 47.6% | 1360 nM | 810 nM |  | COc1cc(-c2ccc3ncnc(Nc4ccc(Cl)cc4O)c3c2)ccc1O [Compound 21, 4-(4-(4-chloro-2-hydroxyphenylamino)quinazolin-6-yl)-2-methoxyphenol]
5 | 647 nM | 59.4% | 619 nM | 1910 nM |  | COc1cc(-c2ccc3ncnc(Nc4ccc(C)cc4F)c3c2)ccc1O [Compound 17, 4-(4-(2-fluoro-4-methylphenylamino)quinazolin-6-yl)-2-methoxyphenol]
6 | 380 nM | 72.6% | 515 nM | 2130 nM |  | COc1cccc(-c2ccc3ncnc(Nc4cccc5[nH]ncc45)c3c2)c1OC [Compound 105, 6-(2,3-dimethoxyphenyl)-N-(1H-indazol-4-yl)quinazolin-4-amine]
7 | 141 nM | 85.5% | 181 nM | 500 nM |  | COc1cc(-c2ccc3ncnc(Nc4cccc(O)c4C)c3c2)ccc1O [Compound 53, 3-(6-(4-hydroxy-3-methoxyphenyl)quinazolin-4-ylamino)-2-methylphenol]
8 | 366 nM | 72.5% | 487 nM | 1430 nM |  | CS(=O)(=O)Nc1ccc(-c2ccc3ncnc(Nc4cccc5[nH]ncc45)c3c2)cc1 [Compound 73, N-(4-(4-(1H-indazol-4-ylamino)quinazolin-6-yl)phenyl)methanesulfonamide]
9 | 221 nM | 81.1% | 244 nM | 680 nM |  | CCS(=O)(=O)Nc1cccc(-c2ccc3ncnc(Nc4cccc5[nH]ncc45)c3c2)c1 [Compound 108, N-(3-(4-(1H-indazol-4-ylamino)quinazolin-6-yl)phenyl)ethanesulfonamide]
10 | 614 nM |  | 426 nM | 3700 nM | 64.3% | COc1cccc(-c2ccc3nccc(Nc4cccc5[nH]ncc45)c3c2)c1 [Compound 146, N-(1H-indazol-4-yl)-6-(3-methoxyphenyl)quinolin-4-amine]
11 | 272 nM | 78.7% | 292 nM | 3190 nM |  | CN(C)c1ccc(-c2ccc3ncnc(Nc4cccc(O)c4)c3c2)cc1 [Compound 106, 3-(6-(4-(dimethylamino)phenyl)quinazolin-4-ylamino)phenol]
12 | 4130 nM | 18.5% | 4280 nM | 12800 nM |  | COc1cc(-c2ccc3nccc(Nc4cc(NS(C)(=O)=O)ccc4F)c3c2)ccc1O [Compound 128, N-(4-fluoro-3-(6-(4-hydroxy-3-methoxyphenyl)quinolin-4-ylamino)phenyl)methanesulfonamide]
13 | 463 nM | 64.1% | 430 nM | 1410 nM |  | COc1cc(-c2ccc3ncnc(Nc4cccc(NS(C)(=O)=O)c4)c3c2)ccc1O [Compound 56, N-(3-(6-(4-hydroxy-3-methoxyphenyl)quinazolin-4-ylamino)phenyl)methanesulfonamide]
14 | 259 nM | 77.5% | 264 nM | 439 nM |  | CCCS(=O)(=O)Nc1cccc(-c2ccc3nccc(Nc4cccc5[nH]ncc45)c3c2)c1 [Compound 122, N-(3-(4-(1H-indazol-4-ylamino)quinolin-6-yl)phenyl)propane-1-sulfonamide]
15 | 227 nM | 76.2% | 284 nM | 753 nM |  | Nc1ccc(-c2ccc3nccc(Nc4cccc5[nH]ncc45)c3c2)cc1 [Compound 121, 6-(4-aminophenyl)-N-(1H-indazol-4-yl)quinolin-4-amine]
16 | 451 nM | 80.1% | 547 nM | 4210 nM |  | Oc1ccc(-c2ccc3ncnc(Nc4cccc5[nH]ncc45)c3c2)cc1 [Compound 131, 4-(4-(1H-indazol-4-ylamino)quinazolin-6-yl)phenol]
17 | 470 nM | 71.1% | 736 nM | 1860 nM |  | COc1ccc(-c2ccc3ncnc(Nc4cccc5[nH]ncc45)c3c2)cc1C [Compound 78, N-(1H-indazol-4-yl)-6-(4-methoxy-3-methylphenyl)quinazolin-4-amine]
18 | 267 nM | 76.6% | 278 nM | 735 nM |  | COc1ccc(-c2ccc3nccc(Nc4cccc5[nH]ncc45)c3c2)cc1Cl [Compound 115, 6-(3-chloro-4-methoxyphenyl)-N-(1H-indazol-4-yl)quinolin-4-amine]
19 | 216 nM | 86.1% | 240 nM | 876 nM |  | COc1ccc(-c2ccc3ncnc(Nc4cccc5[nH]ncc45)c3c2)cc1Cl [Compound 76, 6-(3-chloro-4-methoxyphenyl)-N-(1H-indazol-4-yl)quinazolin-4-amine]
20 | 560 nM | 69.2% | 544 nM | 1300 nM |  | COc1cc(-c2ccc3ncnc(Nc4cccc(F)c4)c3c2)ccc1O [Compound 52, 4-(4-(3-fluorophenylamino)quinazolin-6-yl)-2-methoxyphenol]
21 | 382 nM | 73.9% | 358 nM | 835 nM |  | COc1cc(-c2ccc3ncnc(Nc4cccc(NC(=O)C(F)(F)F)c4)c3c2)ccc1O [Compound 45, 2,2,2-trifluoro-N-(3-(6-(4-hydroxy-3-methoxyphenyl)quinazolin-4-ylamino)phenyl)acetamide]
22 | 182 nM | 80.2% | 207 nM | 619 nM |  | COc1ccc(-c2ccc3nccc(Nc4cccc5[nH]ncc45)c3c2)cc1F [Compound 112, 6-(3-fluoro-4-methoxyphenyl)-N-(1H-indazol-4-yl)quinolin-4-amine]
23 | 667 nM | 53.6% | 2340 nM | > 3000 nM |  | COc1cc(-c2ccc3ncnc(Nc4ccccc4C(N)=O)c3c2)ccc1O [Compound 33, 2-(6-(4-hydroxy-3-methoxyphenyl)quinazolin-4-ylamino)benzamide]
24 | 350 nM |  | 268 nM | 1130 nM | 84.9% | COc1cc(-c2ccc3ncnc(Nc4c(F)ccc5[nH]ncc45)c3c2)ccc1O [Compound 136, 4-(4-(5-fluoro-1H-indazol-4-ylamino)quinazolin-6-yl)-2-methoxyphenol]
25 | 345 nM | 75.4% | 328 nM | 677 nM |  | NS(=O)(=O)c1ccc(-c2ccc3ncnc(Nc4cccc5[nH]ncc45)c3c2)cc1 [Compound 107, 4-(4-(1H-indazol-4-ylamino)quinazolin-6-yl)benzenesulfonamide]
26 | 719 nM | 63.3% | 411 nM | 1390 nM |  | COc1cccc(Nc2ncnc3ccc(-c4ccc(O)c(OC)c4)cc23)c1 [Compound 22, 2-methoxy-4-(4-(3-methoxyphenylamino)quinazolin-6-yl)phenol]
27 | 317 nM | 74.9% | 290 nM | 970 nM |  | COc1cc(-c2ccc3ncnc(Nc4cccc(C(N)=O)c4)c3c2)ccc1O [Compound 35, 3-(6-(4-hydroxy-3-methoxyphenyl)quinazolin-4-ylamino)benzamide]
28 | 201 nM | 77.8% | 287 nM | 597 nM |  | c1ccc(-c2ccc3ncnc(Nc4cccc5[nH]ncc45)c3c2)cc1 [Compound 86, N-(1H-indazol-4-yl)-6-phenylquinazolin-4-amine]
29 | 356 nM | 71.3% | 371 nM | 844 nM |  | FC(F)(F)c1cccc(-c2ccc3ncnc(Nc4cccc5[nH]ncc45)c3c2)c1 [Compound 87, N-(1H-indazol-4-yl)-6-(3-(trifluoromethyl)phenyl)quinazolin-4-amine]
30 | 103 nM | 84.3% | 139 nM | 2400 nM |  | COc1cccc(-c2ccc3ncnc(Nc4cccc(O)c4)c3c2)c1 [Compound 67, 3-(6-(3-methoxyphenyl)quinazolin-4-ylamino)phenol]
